Values of other authors, collected in patent US20250032643A1, “SYNTHETIC RECEPTORS” (UCL BUSINESS LTD, priority 2021, published 2025).

Target: T1, α1B (Homo sapiens, UniProt P35368)
T1 sequence (P35368 1-520): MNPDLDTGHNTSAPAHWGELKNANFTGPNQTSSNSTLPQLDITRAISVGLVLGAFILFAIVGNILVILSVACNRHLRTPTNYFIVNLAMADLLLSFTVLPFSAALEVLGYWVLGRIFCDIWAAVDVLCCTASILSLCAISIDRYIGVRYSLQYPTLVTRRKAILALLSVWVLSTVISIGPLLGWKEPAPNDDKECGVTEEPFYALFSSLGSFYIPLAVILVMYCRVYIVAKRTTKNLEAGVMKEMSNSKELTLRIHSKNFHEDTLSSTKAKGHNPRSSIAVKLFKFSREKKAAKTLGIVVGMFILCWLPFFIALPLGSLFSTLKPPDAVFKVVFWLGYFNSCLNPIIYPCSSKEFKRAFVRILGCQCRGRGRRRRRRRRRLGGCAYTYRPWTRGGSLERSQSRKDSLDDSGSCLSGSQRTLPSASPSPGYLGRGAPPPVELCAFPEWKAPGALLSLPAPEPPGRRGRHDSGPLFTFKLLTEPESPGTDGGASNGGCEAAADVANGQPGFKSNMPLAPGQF
Conditions: read-out: binding affinity; native α1B receptor

Ki: > 1 µM
SMILES: CN(C)CCOC(c1ccccc1)c1ccccc1 [DPH, diphenhydramine]
